# Test results reported in US9139615B2, “High-affinity, dimeric inhibitors of PSD-95 as efficient neuroprotectants against ischemic brain damage and for treatment of pain” (University of Copenhagen, priority 2011, dated 2015).
# Where no end group is shown, it is not given here.
# Biological target: T1, PDZ1-2 of PSD-95 (Homo sapiens, UniProt P78352)
# T1 construct: made in house; host or cells: E. coli BL21-DE3 pLysS
# Assay: Fluorescence polarization (FP) assay, affinity for PDZ1-2 of PSD-95
# Format: binding
# Conditions: Ki ± SEM, affinity towards PDZ1-2 of PSD-95, heterologous competition, probe AB143 0.5 nM, PDZ1-2 […], TBS pH 7.4; IC50 converted to Ki
# Source text: VI.i. Fluorescence Polarization (FP) Assay: as described below, Example 1 provides a convenient and reliable way to monitor and evaluate the inhibitor properties of a PSD-95 inhibitor of the invention. The FP assay allows a wide range of peptide analogues to be tested and compared with respect to their interaction with PDZ domains, and their specificity with respect to the tandem PDZ1-2 of PSD-95. PDZ1-2 is expressed using standard recombinant DNA technology known to those skilled in the art.
# More specifically, the assay is based on a heterologous competition binding assay, where the affinity measured as IC50 of a given (non-fluorescent) peptide analogue for a PDZ domain is measured in the presence of a fixed concentration of a fluorescent labeled dimeric ligand (AB143; FIG. 4). Determined IC50 values are converted to Ki values (Nikolovska-Coleska et al, Anal. Biochem. 2004, 332, p. 261-273). The 5-FAM fluorophore may be attached to the dimeric ligand by coupling with HATU or HBTU.
# The cDNA coding for PSD-95 PDZ1-2 tandem (corresponding to residues 61-249 in the human full-length PSD95α without exon 4b) were amplified by inverted PCR and cloned in a modified His-tagged pRSET vector (Invitrogen, Carlsbad, Calif., USA). The encoded PDZ1-2 peptide further comprised the sequence, […] (SEQ ID NO: 14), which was used as a tag for purification (His-tag), and the DNA coding sequences and encoded proteins are designated as follows: HIS-PDZ1-2 DNA [SEQ ID NO: 1] encoding HIS-PDZ1-2 protein [SEQ ID NO: 2]. Competent E. coli bacteria (BL21-DE3, pLysS) were transformed with PDZ1-2 expressing construct and grown overnight on agar plates containing ampicillin (100 μg/mL) and chloramphenicol (35 μg/mL) at 37° C. Colonies were picked and used to inoculate bacterial cultures (LB medium with 50 μg/mL ampicillin). These were shaken while being incubated at 37° C. until A600 of the culture reached 0.45, at which point 1 mM isopropyl β-D-1-thiogalactopyranoside was added. Induced cultures were incubated over night at 30° C. (PDZ1-2). Cells were harvested by spinning at 10,000 g for 10 min at 4° C. and re-suspended in lysis buffer (50 mM Tris/HCL pH 7.5, 1 mM PMSF, 25 μg/ml DNAse, 40 mM Mg2SO4). The cells were destroyed using a cell disruptor apparatus at 26 KPsi. The cell lysate was spun down at 35,000 g for 1 hour and the supernatant filtered with a 0.45 μm and a 0.22 μm filter. Purification of expressed PDZ1-2 peptide was performed with first a nickel (II)-charged column (HisTrap™ HP, GE Healthcare, UK) equilibrated with Tris-buffer (Tris/HCl buffer 50 mM, pH 7.5) followed by gel-filtration. For gel-filtration the PDZ1-2 sample was loaded on a Superdex™ 75 HR 10/30 column (GE Healthcare, UK) equilibrated with Tris buffer (20 mM Tris/HCL, pH 7.5) with a constant flow rate at 0.5 mL/min. The relevant fractions were analyzed on a SDS-PAGE gel stained by a standard silver staining protocol. The final purification was analyzed by electrospray ionization liquid chromatography-mass spectrometry (ESI-LC/MS) to get the exact molecular weight and thereby verify the identity of the PDZ1-2 domain. Molar extinction coefficients were found by amino acids analysis (Alphalyse, Odense, Denmark) and thereafter used for measuring protein concentrations. […]
# An in vitro affinity measurement assay was developed based on the fluorescence polarization principle in order to provide affinity constants (Ki values) between synthesized ligands (e.g. dimeric inhibitors) and PDZ1-2 of PSD-95. […]
# T1 sequence (P78352 with tags, fused parts or gaps): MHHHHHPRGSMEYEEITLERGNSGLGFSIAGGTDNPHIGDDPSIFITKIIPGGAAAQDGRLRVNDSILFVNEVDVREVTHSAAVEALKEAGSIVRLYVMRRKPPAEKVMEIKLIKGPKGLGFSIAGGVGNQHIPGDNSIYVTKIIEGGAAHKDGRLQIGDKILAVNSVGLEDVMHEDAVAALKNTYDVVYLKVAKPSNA
sequence,measurement,value
"YGRKKRRQRRRKLSSIESDV [Tat-NR2B9c, reference compound]",Ki,4.6 ± 0.3 µM
